Measurements: US6355799B1, “Substituted benzene compounds, process for their preparation, and herbicidal and defoliant compositions containing them” (ISK Americas Incorporated, priority 1997, dated 2002)

How the values were obtained:
Format in all cases: in vivo
[1] = tested on: ivyleaf morningglory (Ipomoea hederacea, IPOHE); assay: Pre-emerge test, greenhouse herbicide activity screening; conditions: Ipomoea, pre-emergence, 336 h, pre-emerge, phytotoxicity rating 0-100 at 14 days after application, read-out: Pre-emerge Herbicidal Activity IPOHE
Summary of the method: (§1)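 Herbicidal damage is scored 0 (none) to 100 (complete plant death) two weeks after a simulated field spray. Rates span 15–1000 g ai/ha, delivered in acetone at 187 l/ha. For post-emergence treatments, plants have 2–3 leaves and the spray carries 0.25% v/v non-ionic surfactant.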

[2] = tested on: sicklepod (Cassia obtusifolia, CASOB); assay: as above; conditions: Senna obtusifolia, pre-emergence, 336 h, pre-emerge, phytotoxicity rating 0-100 at 14 days after application, read-out: Pre-emerge Herbicidal Activity CASOB
Summary of the method: as §1

[3] = tested on: green foxtail (Setaria viridis, SETVI); assay: as above; conditions: Setaria viridis, pre-emergence, 336 h, pre-emerge, phytotoxicity rating 0-100 at 14 days after application, read-out: Pre-emerge Herbicidal Activity SETVI
Summary of the method: as §1

[4] = tested on: large crabgrass (Digitaria sanguinalis, DIGSA); assay: as above; conditions: Digitaria sanguinalis, pre-emergence, 336 h, pre-emerge, phytotoxicity rating 0-100 at 14 days after application, read-out: Pre-emerge Herbicidal Activity DIGSA
Summary of the method: as §1

[5] = tested on: johnsongrass (Sorghum halepense, SORHA); assay: as above; conditions: Sorghum halepense, pre-emergence, 336 h, pre-emerge, phytotoxicity rating 0-100 at 14 days after application, read-out: Pre-emerge Herbicidal Activity SORHA
Summary of the method: as §1

[6] = tested on: barnyardgrass (Echinochloa crus-galli, ECHCG); assay: as above; conditions: Echinochloa crus-galli, pre-emergence, 336 h, pre-emerge, phytotoxicity rating 0-100 at 14 days after application, read-out: Pre-emerge Herbicidal Activity ECHCG
Summary of the method: as §1

[7] = tested on: velvetleaf (Abutilon theophrasti, ABUTH); assay: as above; conditions: Abutilon theophrasti, pre-emergence, 336 h, pre-emerge, phytotoxicity rating 0-100 at 14 days after application, read-out: Pre-emerge Herbicidal Activity ABUTH
Summary of the method: as §1

[8] = tested on: lambsquarters (Chenopodium album, CHEAL); assay: as above; conditions: Chenopodium album, pre-emergence, 336 h, pre-emerge, phytotoxicity rating 0-100 at 14 days after application, read-out: Pre-emerge Herbicidal Activity CHEAL
Summary of the method: as §1

[9] = tested on: ivyleaf morningglory (Ipomoea hederacea, IPOHE); assay: Post-emerge test, greenhouse herbicide activity screening; conditions: Ipomoea, post-emergence, 336 h, post-emerge, phytotoxicity rating 0-100 at 14 days after application, read-out: Post-emerge Herbicidal Activity IPOHE
Summary of the method: (§2)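 Sandy loam pots; pre-emerge: sown 1 d pre-spray, surface-watered after, then bottom-watered. Post-emerge: sown 8–21 d before, 2–3 leaf stage, + 0.25% v/v NIS, bottom-watered. Acetone, 187 l/ha track spray, 15–1000 g ai/ha. 0–100 injury score, day 14.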

[10] = tested on: sicklepod (Cassia obtusifolia, CASOB); assay: as above; conditions: Senna obtusifolia, post-emergence, 336 h, post-emerge, phytotoxicity rating 0-100 at 14 days after application, read-out: Post-emerge Herbicidal Activity CASOB
Summary of the method: as §2

[11] = tested on: green foxtail (Setaria viridis, SETVI); assay: as above; conditions: Setaria viridis, post-emergence, 336 h, post-emerge, phytotoxicity rating 0-100 at 14 days after application, read-out: Post-emerge Herbicidal Activity SETVI
Summary of the method: as §2

[12] = tested on: johnsongrass (Sorghum halepense, SORHA); assay: as above; conditions: Sorghum halepense, post-emergence, 336 h, post-emerge, phytotoxicity rating 0-100 at 14 days after application, read-out: Post-emerge Herbicidal Activity SORHA
Summary of the method: as §2

[13] = tested on: barnyardgrass (Echinochloa crus-galli, ECHCG); assay: as above; conditions: Echinochloa crus-galli, post-emergence, 336 h, post-emerge, phytotoxicity rating 0-100 at 14 days after application, read-out: Post-emerge Herbicidal Activity ECHCG
Summary of the method: as §2

[14] = tested on: velvetleaf (Abutilon theophrasti, ABUTH); assay: as above; conditions: Abutilon theophrasti, post-emergence, 336 h, post-emerge, phytotoxicity rating 0-100 at 14 days after application, read-out: Post-emerge Herbicidal Activity ABUTH
Summary of the method: as §2

[15] = tested on: lambsquarters (Chenopodium album, CHEAL); assay: as above; conditions: Chenopodium album, post-emergence, 336 h, post-emerge, phytotoxicity rating 0-100 at 14 days after application, read-out: Post-emerge Herbicidal Activity CHEAL
Summary of the method: as §2

In the case of `CC(C)Oc1c(Cl)cc(F)c(N2C(=O)C3=C(CCCC3)C2=O)c1N` [Compound 8-4, N-(2-amino-4-chloro-6-fluoro-3-isopropyloxyphenyl)tetrahydrophthalimide], the pest or weed control at 63 g/ha ([1]; rate 63 g ai/ha) is reported as 0%, the pest or weed control at 250 g/ha ([1]; rate 250 g ai/ha) is reported as 0% and the pest or weed control at 63 g/ha ([2]; rate 63 g ai/ha) is reported as 0%. The pest or weed control at 250 g/ha ([2]; rate 250 g ai/ha) was 0%, the pest or weed control at 63 g/ha ([3]; rate 63 g ai/ha) was 30% and the pest or weed control at 250 g/ha ([3]; rate 250 g ai/ha) was 70%. It also gave a pest or weed control at 63 g/ha ([4]; rate 63 g ai/ha) of 20%, a pest or weed control at 250 g/ha ([4]; rate 250 g ai/ha) of 20% and a pest or weed control at 63 g/ha ([5]; rate 63 g ai/ha) of 0%. It also gave a pest or weed control at 250 g/ha ([5]; rate 250 g ai/ha) of 20%, a pest or weed control at 63 g/ha ([6]; rate 63 g ai/ha) of 0% and a pest or weed control at 250 g/ha ([6]; rate 250 g ai/ha) of 0%. It also gave a pest or weed control at 63 g/ha ([7]; rate 63 g ai/ha) of 0%, a pest or weed control at 250 g/ha ([7]; rate 250 g ai/ha) of 90% and a pest or weed control at 63 g/ha ([8]; rate 63 g ai/ha) of 80%. The pest or weed control at 250 g/ha ([8]; rate 250 g ai/ha) was 99%, the pest or weed control at 63 g/ha ([9]; 63 g ai/ha) was 0% and the pest or weed control at 250 g/ha ([9]; 250 g ai/ha) was 20%. It also gave a pest or weed control at 63 g/ha ([10]; 63 g ai/ha) of 0%, a pest or weed control at 250 g/ha ([10]; 250 g ai/ha) of 10% and a pest or weed control at 63 g/ha ([11]; 63 g ai/ha) of 0%. It also gave a pest or weed control at 250 g/ha ([11]; 250 g ai/ha) of 30%, a pest or weed control at 63 g/ha ([12]; 63 g ai/ha) of 0% and a pest or weed control at 250 g/ha ([12]; 250 g ai/ha) of 0%. For the same molecule, the pest or weed control at 63 g/ha ([13]; 63 g ai/ha) was 0%, the pest or weed control at 250 g/ha ([13]; 250 g ai/ha) was 0% and the pest or weed control at 63 g/ha ([14]; 63 g ai/ha) was 60%. For the same molecule, the pest or weed control at 250 g/ha ([14]; 250 g ai/ha) was 80%, the pest or weed control at 63 g/ha ([15]; 63 g ai/ha) was 70% and the pest or weed control at 250 g/ha ([15]; 250 g ai/ha) was 90%.
